Non-standard residues stand in square brackets, D forms with d. No end group written: not given here. *: point of attachment. Nle = CCCC[C@H](N)C(=O)O; For = O=C*

Data on three molecules can be found in paper PMC2917377 (Cytometry. Part A : the journal of the International …, 2009).

In one experiment the target is FPR. The settings on record: read-out: Kd for FPR; cited from earlier work.
The subject of the next experiment is FPRL1. The note with it: cited from earlier work.
The target of experiment [1] is formyl peptide receptor-like 1. The settings on record: cited from earlier work.
The next experiment has as its target T1, WKGMVm.
T1 chain: WKGMV[dM]
Briefly: competition flow cytometry. Background: Flow cytometry measures light scatter and fluorescence of single cells or particles in a stream.

For the next experiment, the target named is T2, WKRMVm.
T2 chain: WKRMV[dM]
Briefly: competition flow cytometry.

The next experiment concerns the target WKYMVm. The experiment is described as follows: competition.

In general, Kd refers to the concentration at which binding is half-saturated. With “N-formyl -Met-Leu-Phe-Lys-fluorescein (For-MLFK(fluorescein)) [fMLFK-FITC]”, at FPR, the Kd is 3 nM. For the same molecule, in the experiment on FPRL1, the “Binding to FPRL1” value is “does not bind”.

One may read the EC50 as the concentration giving half of the maximal effect. With W[Nle]YM [WNleYM], the EC50 in experiment [1] was 5.34 nM.

B1: FPRL1 (protein)
chain: METNFSTPLNEYEEVSYESAGYTVLRILPLVVLGVTFVLGVLGNGLVIWVAGFRMTRTVTTICYLNLALADFSFTATLPFLIVSMAMGEKWPFGWFLCKLIHIVVDINLFGSVFLIGFIALDRCICVLHPVWAQNHRTVSLAMKVIVGPWILALVLTLPVFLFLTTVTIPNGDTYCTFNFASWGGTPEERLKVAITMLTARGIIRFVIGFSLPMSIVAICYGLIAAKIHKKGMIKSSRPLRVLTAVVASFFICWFPFQLVALLGTVWLKEMLFYGKYKIIDILVNPTSSLAFFNSCLNPMLYVFVGQDFRERLIHSLPTSLERALSEDSAPTNDTAANSASPPAETELQAM
For orientation: IC50 means the midpoint of a concentration-inhibition curve. In the case of B1, the IC50 in the experiment with WKGMVm stood at 176 nM; with WKRMVm it was 705 nM; in the experiment with WKYMVm, 1.8 nM.
